Measured values: publication PMC9157728, “Albumin Binder–Conjugated Fibroblast Activation Protein Inhibitor Radiopharmaceuticals for Cancer Therapy” (Journal of Nuclear Medicine, 2022)

Columns and labels:
[1] = Stability in vitro in saline and human serum (radio-HPLC); type: in vitro ADME; settings: 7 d
Experimental: The radiolabeling of ^68Ga, ^86Y, and ^177Lu was performed by incubation with 50 nmol of precursor at pH 4.5–5.0 at 90°C for 10 min. The product was purified by C18 column extraction, and the radiochemical purity was determined by high-performance liquid chromatography equipped with a radioactivity detector. The stability of ^177Lu-TEFAPI-06 and ^177Lu-TEFAPI-07 in saline and human serum was monitored from 2 to 168 h using radio–high-performance liquid chromatography ([13]). More details about the radiochemistry, the quality control testing, and the stability assay can be found in the supplemental materials (section 3).

[2] = test system: pancreatic cancer PDX tumors; test: SPECT imaging in pancreatic cancer PDX-bearing mice; type: in vivo; settings: for tumor uptake at 6 d after injection (SPECT imaging and biodistribution): 6 d after the injection; for tumor-to-nontargeted-tissue signal ratios on SPECT: PDX tumor models, until 144 h after injection
Experimental: SPECT scans were performed on a Mediso nanoSPECT/CT imaging system. ^177Lu-TEFAPI-06 or ^177Lu-TEFAPI-07 SPECT imaging was performed on pancreatic cancer PDX–bearing mice at the indicated time points after intravenous injection of 37 MBq of ^177Lu-TEFAPI-06 or ^177Lu-TEFAPI-07, respectively.

[3] = Ex vivo biodistribution study in PDX-bearing mice
Experimental: PDX-bearing mice were injected with 925.0 kBq of ^177Lu-TEFAPI-06 or ^177Lu-TEFAPI-07 for an ex vivo biodistribution study. The mice were killed at 24 h and 96 h after injection, the counts of the different organs were measured with a γ-counter, and the data were normalized to percentage injected dose (%ID)/g using 1% of total counts.

[4] = test system: pancreatic cancer PDX tumors; test: Radiotherapy study in pancreatic cancer PDX-bearing mice (tumor growth); type: in vivo; settings: 1.85 MBq or 3.7 MBq, vs saline or 3.7 MBq ^177Lu-FAPI-04
Experimental: (§1) ^68Ga-FAPI-04 PET imaging was performed to evaluate the tumor volume, and the mice were treated when their average tumor volume reached 35 mm^3. The PDX-bearing mice (6 groups, 7–9 mice per group) were treated by saline, 3.7 MBq of ^177Lu-FAPI-04, 1.85 MBq of ^177Lu-TEFAPI-06, 3.7 MBq of ^177Lu-TEFAPI-06, 1.85 MBq of ^177Lu-TEFAPI-07, or […] of ^177Lu-TEFAPI-07. Tumor volume and body weight were monitored every 2 or 3 d, and the animals were euthanized when the tumor volume exceeded 1,000 mm^3. Histopathologic staining was performed with an antihuman FAP monoclonal antibody (ab207178; Abcam), and hematoxylin and eosin staining was performed as previously described ([29]).

[5] = Radiotherapy study: body weight and hematoxylin and eosin staining of main organs; type: in vivo; settings: pancreatic cancer PDX-bearing mice after treatment
Experimental: as §1

N#C[C@@H]1CC(F)(F)CN1C(=O)CNC(=O)c1ccnc2ccc(OCCCN3CCN(C(=O)[C@H](CCCCNC(=O)CN4CCN(CC(=O)[O-])CCN(CC(=O)[O-])CCN(CC(=O)[O-])CC4)NC(=O)CCCC(=O)N[C@@H](CCCCNC(=O)CCCc4ccc(I)cc4)C(=O)O)CC3)cc12.[177Lu+3] [^177Lu-TEFAPI-06]
radiochemistry purity after incubation in human serum [1]: over 90% | radiochemistry purity after incubation in saline [1]: over 90% | tumor uptake at 6 d after injection (SPECT imaging and biodistribution) [2]: still notable | tumor-to-nontargeted-tissue signal ratios on SPECT [2]: high | Blood uptake ([3]; 24 h after injection): 12.32 %ID/g | Bone uptake ([3]; 24 h after injection): 1.32 %ID/g | Brain uptake ([3]; 24 h after injection): 0.37 %ID/g | Fat uptake ([3]; 24 h after injection): 1.86 %ID/g | Heart uptake ([3]; 24 h after injection): 3.70 %ID/g | Kidney uptake ([3]; 24 h after injection): 3.20 %ID/g | Large intestine uptake ([3]; 24 h after injection): 1.66 %ID/g | Liver uptake ([3]; 24 h after injection): 2.98 %ID/g | Lung uptake ([3]; 24 h after injection): 4.33 %ID/g | Muscle uptake ([3]; 24 h after injection): 1.09 %ID/g | Pancreas uptake ([3]; 24 h after injection): 2.01 %ID/g | Small intestine uptake ([3]; 24 h after injection): 2.55 %ID/g | Spleen uptake ([3]; 24 h after injection): 3.00 %ID/g | Stomach uptake ([3]; 24 h after injection): 1.75 %ID/g | Tumor uptake ([3]; 24 h after injection): 8.68 %ID/g | tumor-to-liver ratio ([3]; 24 h after injection): 2.91 | Blood uptake ([3]; 96 h after injection): 2.25 %ID/g | Bone uptake ([3]; 96 h after injection): 0.35 %ID/g | Brain uptake ([3]; 96 h after injection): 0.09 %ID/g | Fat uptake ([3]; 96 h after injection): 1.55 %ID/g | Heart uptake ([3]; 96 h after injection): 1.51 %ID/g | Kidney uptake ([3]; 96 h after injection): 2.66 %ID/g | Large intestine uptake ([3]; 96 h after injection): 0.53 %ID/g | Liver uptake ([3]; 96 h after injection): 1.74 %ID/g | Lung uptake ([3]; 96 h after injection): 1.95 %ID/g | Muscle uptake ([3]; 96 h after injection): 0.45 %ID/g | Pancreas uptake ([3]; 96 h after injection): 0.75 %ID/g | Small intestine uptake ([3]; 96 h after injection): 0.61 %ID/g | Spleen uptake ([3]; 96 h after injection): 3.66 %ID/g | Stomach uptake ([3]; 96 h after injection): 0.54 %ID/g | Tumor uptake ([3]; 96 h after injection): 7.33 %ID/g | tumor-to-liver ratio ([3]; 96 h after injection): 4.21 | tumor growth after treatment [4]: remarkable suppression of tumor growth | side effects, hematoxylin and eosin staining of the main organs [5]: almost negligible

Cc1cc(-c2ccc(NC(=O)CCCC(=O)N[C@@H](CCCCNC(=O)CN3CCN(CC(=O)[O-])CCN(CC(=O)[O-])CCN(CC(=O)[O-])CC3)C(=O)N3CCN(CCCOc4ccc5nccc(C(=O)NCC(=O)N6CC(F)(F)C[C@H]6C#N)c5c4)CC3)c(C)c2)ccc1N=Nc1ccc2c(S(=O)(=O)O)cc(S(=O)(=O)O)c(N)c2c1O.[177Lu+3] [^177Lu-TEFAPI-07]
radiochemistry purity after incubation in human serum [1]: over 90% | radiochemistry purity after incubation in saline [1]: over 90% | tumor uptake at 6 d after injection (SPECT imaging and biodistribution) [2]: still notable | tumor-to-nontargeted-tissue signal ratios on SPECT [2]: high | Blood uptake ([3]; 24 h after injection): 5.64 %ID/g | Bone uptake ([3]; 24 h after injection): 1.71 %ID/g | Brain uptake ([3]; 24 h after injection): 0.23 %ID/g | Fat uptake ([3]; 24 h after injection): 1.82 %ID/g | Heart uptake ([3]; 24 h after injection): 2.53 %ID/g | Kidney uptake ([3]; 24 h after injection): 8.67 %ID/g | Large intestine uptake ([3]; 24 h after injection): 1.15 %ID/g | Liver uptake ([3]; 24 h after injection): 3.21 %ID/g | Lung uptake ([3]; 24 h after injection): 2.58 %ID/g | Muscle uptake ([3]; 24 h after injection): 1.00 %ID/g | Pancreas uptake ([3]; 24 h after injection): 2.16 %ID/g | Small intestine uptake ([3]; 24 h after injection): 1.19 %ID/g | Spleen uptake ([3]; 24 h after injection): 2.69 %ID/g | Stomach uptake ([3]; 24 h after injection): 1.20 %ID/g | Tumor uptake ([3]; 24 h after injection): 7.87 %ID/g | tumor-to-liver ratio ([3]; 24 h after injection): 2.45 | Blood uptake ([3]; 96 h after injection): 0.51 %ID/g | Bone uptake ([3]; 96 h after injection): 0.18 %ID/g | Fat uptake ([3]; 96 h after injection): 0.48 %ID/g | Heart uptake ([3]; 96 h after injection): 0.62 %ID/g | Kidney uptake ([3]; 96 h after injection): 10.16 %ID/g | Large intestine uptake ([3]; 96 h after injection): 0.10 %ID/g | Liver uptake ([3]; 96 h after injection): 2.31 %ID/g | Lung uptake ([3]; 96 h after injection): 0.73 %ID/g | Muscle uptake ([3]; 96 h after injection): 0.28 %ID/g | Pancreas uptake ([3]; 96 h after injection): 0.53 %ID/g | Small intestine uptake ([3]; 96 h after injection): 0.16 %ID/g | Spleen uptake ([3]; 96 h after injection): 1.88 %ID/g | Stomach uptake ([3]; 96 h after injection): 0.29 %ID/g | Tumor uptake ([3]; 96 h after injection): 7.57 %ID/g | tumor-to-liver ratio ([3]; 96 h after injection): 3.28 | tumor growth after treatment [4]: remarkable suppression of tumor growth | side effects, hematoxylin and eosin staining of the main organs [5]: almost negligible
